# From patent US7253138B2, “Corrosion and gas hydrate inhibitors having improved water solubility and increased biodegradability” (Clariant Produkte (Deutschland) GmbH, priority 2003, dated 2007)
# Columns and labels:
# [1] = Shell wheel test (corrosion inhibition); conditions: salt water/petroleum mixture (9:1.5% NaCl solution, pH 3.5 with acetic acid), 40 rpm, 70° C., 24 hours; 50 ppm of a 40% solution of the inhibitor; from mass reduction vs blank
# Description: The compounds according to the invention were tested as corrosion inhibitors in the Shell wheel test. Coupons of carbon steel (DIN 1.1203 having 15 cm^2 surface area) were immersed in a salt water/petroleum mixture (9:1.5% NaCl solution, adjusted to pH 3.5 using acetic acid) and subjected to this medium at a rotation rate of 40 rpm at 70° C. for 24 hours. The dosage of the inhibitor was 50 ppm of a 40% solution of the inhibitor. The protection values were calculated from the mass reduction of the coupons, based on a blank value.
# In the table which follows, “comparison” refers to a commercial soya fatty acid amidopropyl-N,N-dimethylammonium carboxymethyl betaine described by EP-B-0 446 616 (prior art corrosion inhibitor).
# [2] = Agitation foam method; format: physicochemical; conditions: 50 ml of a 3% aqueous solution in demineralized water, agitated 20 times within 10 sec in closed 100 ml cylinder
# Description: The foam properties were tested with the agitation foam method. To this end, 50 ml of a 3% aqueous solution of the appropriate corrosion inhibitor in demineralized water were agitated in a closed 100 ml measuring cylinder 20 times within 10 sec. On completion of the agitation, the foaming behavior was assessed using the total volume of the solution (foam height) and the foam decomposition time (time until attainment of the starting volume of 50 ml).
# [3] = LPR test (corrosion inhibition, test conditions similar to ASTM D 2776)
# Description: The products were also tested in the LPR test (test conditions similar to ASTM D 2776).
substance,measurement,setting,value
"Polyisobutenylsuccinimido-N,N-dimethylpropylammonium N-methyl-carboxyl betaine [Betaine from example 11]",ø Protection %,[1],80.6%
same,Foaming behavior,[2],Weakly foaming
same,Protection after 10 min,[3],61.9%
same,Protection after 30 min,[3],70.6%
same,Protection after 60 min,[3],80.6%
"Polyisobutenylsuccinimido-N,N-dimethylpropylammonium N-methyl-carboxyl betaine [Betaine from example 10]",ø Protection %,[1],90.1%
same,Foaming behavior,[2],Weakly foaming
same,Protection after 10 min,[3],79.1%
same,Protection after 30 min,[3],92.3%
same,Protection after 60 min,[3],99.2%
"Polyisobutenylsuccinimido-N,N-dimethylpropylammonium N-methyl-carboxyl betaine [Betaine from example 12]",ø Protection %,[1],82.7%
same,Protection after 10 min,[3],70.0%
same,Protection after 30 min,[3],79.4%
same,Protection after 60 min,[3],86.3%
"soya fatty acid amidopropyl-N,N-dimethylammonium carboxymethyl betaine [Comparison, reference compound]",ø Protection %,[1],75.4%
same,Foaming behavior,[2],Strongly foaming
same,Protection after 10 min,[3],45.9%
same,Protection after 30 min,[3],59.2%
same,Protection after 60 min,[3],64.2%
"Tetrapropylenesuccinimido-N,N-dimethylpropylammonium N-methylcarboxyl betaine [Betaine from example 8]",ø Protection %,[1],84.0%
same,Protection after 10 min,[3],74.0%
same,Protection after 30 min,[3],81.3%
same,Protection after 60 min,[3],84.9%
"Dodecenyl-/tetradecenylsuccinimido-N,N-dimethylpropylammonium N-methylcarboxyl betaine [Betaine from example 7]",ø Protection %,[1],84.9%
same,Protection after 10 min,[3],72.5%
same,Protection after 30 min,[3],92.0%
same,Protection after 60 min,[3],98.1%
"Pentapropylenesuccinimido-N,N-dimethylpropylammonium N-methylcarboxyl betaine [Betaine from example 9]",ø Protection %,[1],90.4%
same,Foaming behavior,[2],Weakly foaming
same,Protection after 10 min,[3],77.9%
same,Protection after 30 min,[3],94.0%
same,Protection after 60 min,[3],99.8%
